From ChEMBL document CHEMBL1201862, “PubChem BioAssay data set” (2004) come the findings set out here.

A short description of test [1]: Luminescence Cell-Based Dose Retest to Confirm Inhibitors of Cancer Stem Cells. [Related pubchem assays (depositor defined):AID2717, AID2721]. The class given is functional. Particulars: Homo sapiens.
The next test deals with Cytochrome P450 2C19 (Homo sapiens, UniProt P33261). Put plainly: Cytochrome panel assay with activity outcomes. Panel member name: p450-cyp2c19 Compounds with AC50 equal or less than 10 uM are considered active. In kind it is functional. Particulars: read-out: AC50.
Sequence of Cytochrome P450 2C19 (P33261 whole entry): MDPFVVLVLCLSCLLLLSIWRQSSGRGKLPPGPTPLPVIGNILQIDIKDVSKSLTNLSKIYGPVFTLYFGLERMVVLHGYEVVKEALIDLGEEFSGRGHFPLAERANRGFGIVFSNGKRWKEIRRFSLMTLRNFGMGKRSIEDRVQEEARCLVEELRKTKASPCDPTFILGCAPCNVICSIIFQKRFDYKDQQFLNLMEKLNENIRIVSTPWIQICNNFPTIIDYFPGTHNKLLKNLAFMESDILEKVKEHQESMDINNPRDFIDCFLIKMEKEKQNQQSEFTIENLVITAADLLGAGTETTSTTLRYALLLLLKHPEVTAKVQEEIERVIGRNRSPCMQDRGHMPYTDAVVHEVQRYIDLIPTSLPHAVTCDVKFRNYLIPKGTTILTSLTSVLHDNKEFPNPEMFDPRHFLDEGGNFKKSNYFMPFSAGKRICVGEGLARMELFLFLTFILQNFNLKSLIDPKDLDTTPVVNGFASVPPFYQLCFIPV
Another test addresses Cytochrome P450 2C9 (Homo sapiens, UniProt P11712).
A further test addresses Cytochrome P450 3A4 (Homo sapiens, UniProt P08684).
The next test concerns the target T1, Protein RecA (Mycobacterium tuberculosis, UniProt P9WHJ3).
T1 sequence (P9WHJ3 whole entry): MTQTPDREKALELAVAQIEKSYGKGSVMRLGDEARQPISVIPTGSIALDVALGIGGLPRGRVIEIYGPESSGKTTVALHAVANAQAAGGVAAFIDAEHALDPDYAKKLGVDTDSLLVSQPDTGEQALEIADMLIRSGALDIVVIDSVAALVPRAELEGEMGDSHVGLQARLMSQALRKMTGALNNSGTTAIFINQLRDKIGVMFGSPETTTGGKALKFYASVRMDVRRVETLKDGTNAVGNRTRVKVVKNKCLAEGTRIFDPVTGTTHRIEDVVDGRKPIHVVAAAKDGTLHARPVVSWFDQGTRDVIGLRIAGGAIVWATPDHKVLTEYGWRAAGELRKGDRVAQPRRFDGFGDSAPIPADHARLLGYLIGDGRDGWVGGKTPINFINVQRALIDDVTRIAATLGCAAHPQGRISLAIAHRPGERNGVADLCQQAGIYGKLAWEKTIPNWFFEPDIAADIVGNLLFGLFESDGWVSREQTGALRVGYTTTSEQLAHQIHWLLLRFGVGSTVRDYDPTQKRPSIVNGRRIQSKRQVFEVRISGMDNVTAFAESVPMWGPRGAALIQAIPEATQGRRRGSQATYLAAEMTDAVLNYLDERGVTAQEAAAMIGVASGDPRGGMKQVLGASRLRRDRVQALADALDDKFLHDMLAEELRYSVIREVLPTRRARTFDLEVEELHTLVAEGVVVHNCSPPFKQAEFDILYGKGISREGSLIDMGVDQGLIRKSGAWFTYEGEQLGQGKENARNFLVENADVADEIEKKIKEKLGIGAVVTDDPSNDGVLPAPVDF
Description: Fluorescence Cell-Free Homogeneous Dose Retest to Identify Inhibitors of RecA-Intein Splicing Activity. [Related pubchem assays (depositor defined):AID2097, AID2223, AID489010, AID492950]. The class given is functional.

The target in test [2] is T2, Replicative DNA helicase DnaB (Mycobacterium tuberculosis, UniProt P9WMR3).
T2 sequence (P9WMR3 whole entry): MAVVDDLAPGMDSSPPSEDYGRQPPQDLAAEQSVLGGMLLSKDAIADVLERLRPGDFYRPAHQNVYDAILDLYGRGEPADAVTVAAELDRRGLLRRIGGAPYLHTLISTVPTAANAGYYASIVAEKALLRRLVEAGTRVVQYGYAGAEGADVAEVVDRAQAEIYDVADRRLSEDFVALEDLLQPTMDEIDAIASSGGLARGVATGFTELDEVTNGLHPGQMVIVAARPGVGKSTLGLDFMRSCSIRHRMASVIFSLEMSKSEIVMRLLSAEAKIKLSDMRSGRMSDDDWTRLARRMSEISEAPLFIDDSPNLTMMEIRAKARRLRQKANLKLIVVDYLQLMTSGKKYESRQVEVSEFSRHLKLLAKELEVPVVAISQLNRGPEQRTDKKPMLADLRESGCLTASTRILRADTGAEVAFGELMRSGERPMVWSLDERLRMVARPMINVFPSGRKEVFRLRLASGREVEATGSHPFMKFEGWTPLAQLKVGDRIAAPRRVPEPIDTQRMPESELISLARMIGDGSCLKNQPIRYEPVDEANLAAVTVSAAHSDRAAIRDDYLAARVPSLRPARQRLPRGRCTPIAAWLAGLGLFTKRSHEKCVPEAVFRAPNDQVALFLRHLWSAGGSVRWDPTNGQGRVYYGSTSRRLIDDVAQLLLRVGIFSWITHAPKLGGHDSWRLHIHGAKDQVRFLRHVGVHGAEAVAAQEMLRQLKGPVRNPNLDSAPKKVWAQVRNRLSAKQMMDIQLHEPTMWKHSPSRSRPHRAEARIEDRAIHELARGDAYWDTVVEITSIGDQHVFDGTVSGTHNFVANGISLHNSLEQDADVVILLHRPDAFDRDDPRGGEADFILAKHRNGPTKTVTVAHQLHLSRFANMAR
Put plainly: DnaB intein splicing inhibitors, dose response, biochemical, cell-free fluorescence (AID 449749). The class given is functional.

Test [3] is described as follows: Luminescence Cell-Based Dose Response HTS to Identify Inhibitors of 5'UTR Stem-Loop Driven Prion Protein mRNA Translation in H4 Neuroglioblastoma Cells. [Related pubchem assays: 1827 (Project Summary), 1813 (Primary HTS)]. In kind it is functional.
Test [4] concerns Streptococcus sp. 'group A'. Put plainly: growth inhibition of control SK(-) GAS strain, dose response, counter-screen for streptokinase expression inhibitor project, luminescence, kanamycin, BacTiterGlo, confirmation (AID 1900). In kind it is functional, organism-based.
Test [5] is described as follows: inhibitors of SNCA 5'UTR-driven reporter translation, confirmation, H4 neuroglioma cells, luminescence (AID 1988). In kind it is functional, cell-based.
Another test deals with Streptococcus. Description: Group A Streptococcus viability loss, dose response, counter-screen for streptokinase expression inhibitor project, luminescence, BacTiterGlo (AID 1915).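 Note: potency for reduction of bacterial viability or growth.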 In kind it is functional, organism-based. For orientation: A counterscreen serves to expose hits that act by an unwanted route or on another target.
Test [6] is described as follows: inhibitors of firefly luciferase expression or activity, dose response, H4 neuroglioma cells, luminescence (AID 1990). The class given is functional, cell-based.
In the next test the target is T3, Cytochrome P450 1A2 (Homo sapiens, UniProt P05177).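 Note: PubChem cytochrome P450 panel assay, CYP1A2 panel member.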
T3 sequence (P05177 whole entry): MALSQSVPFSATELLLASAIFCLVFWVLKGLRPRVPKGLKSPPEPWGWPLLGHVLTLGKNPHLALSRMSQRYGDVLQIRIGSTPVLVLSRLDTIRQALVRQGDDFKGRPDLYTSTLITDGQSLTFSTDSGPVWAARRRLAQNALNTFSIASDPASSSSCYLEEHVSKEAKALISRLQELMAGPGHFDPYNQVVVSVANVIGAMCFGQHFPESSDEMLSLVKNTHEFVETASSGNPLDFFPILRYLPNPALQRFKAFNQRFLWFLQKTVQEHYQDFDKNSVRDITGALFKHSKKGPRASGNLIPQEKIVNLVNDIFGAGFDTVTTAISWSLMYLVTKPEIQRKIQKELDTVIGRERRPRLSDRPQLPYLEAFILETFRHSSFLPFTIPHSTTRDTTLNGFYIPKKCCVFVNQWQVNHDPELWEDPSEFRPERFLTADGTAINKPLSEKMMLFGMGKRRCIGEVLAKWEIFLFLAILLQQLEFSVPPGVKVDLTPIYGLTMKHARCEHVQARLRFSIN

Test [7] can be described thus: cytotoxicity toward NIH3T3 fibroblasts, dose response, counter-screen, cell-based, ATP luminescence, mouse fibroblasts (AID 2010).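 Note: cells exposed to compound for about 90 hours before reading.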 In kind it is functional.
Test [8] in a line: inhibitors of intracellular T. cruzi replication, confirmation, NIH3T3 host cells, beta-gal luminescence (AID 2044).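 Note: intracellular parasites grown in NIH/3T3 mouse fibroblasts as host cells; luminescent beta-galactosidase reporter signal from transgenic T. cruzi replicating inside host cells; inhibitors lower the luminescence signal.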 The class given is functional, cell-based.

Structures are written as SMILES. Active and inactive are the calls of the source. A value given as a limit tells only on which side of the number the result lay.

Usually AC50 stands for the concentration at which the activity in the assay is half-maximal. Broadly, the EC50 is the concentration that produces a half-maximal response.

Sequence of Cytochrome P450 2C9 (P11712 whole entry): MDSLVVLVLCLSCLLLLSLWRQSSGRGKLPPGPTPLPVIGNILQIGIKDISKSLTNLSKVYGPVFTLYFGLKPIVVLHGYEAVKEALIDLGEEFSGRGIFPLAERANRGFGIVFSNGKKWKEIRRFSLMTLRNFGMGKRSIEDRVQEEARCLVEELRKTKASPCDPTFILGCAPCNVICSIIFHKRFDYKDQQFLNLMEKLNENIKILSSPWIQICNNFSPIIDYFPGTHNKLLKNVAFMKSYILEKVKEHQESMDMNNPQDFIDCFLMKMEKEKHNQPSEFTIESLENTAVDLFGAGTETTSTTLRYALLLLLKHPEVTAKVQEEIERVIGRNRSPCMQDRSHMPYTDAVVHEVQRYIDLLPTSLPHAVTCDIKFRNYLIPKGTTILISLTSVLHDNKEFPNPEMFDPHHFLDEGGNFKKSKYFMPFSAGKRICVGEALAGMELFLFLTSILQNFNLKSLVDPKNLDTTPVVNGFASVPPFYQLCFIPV
Sequence of Cytochrome P450 3A4 (P08684 whole entry): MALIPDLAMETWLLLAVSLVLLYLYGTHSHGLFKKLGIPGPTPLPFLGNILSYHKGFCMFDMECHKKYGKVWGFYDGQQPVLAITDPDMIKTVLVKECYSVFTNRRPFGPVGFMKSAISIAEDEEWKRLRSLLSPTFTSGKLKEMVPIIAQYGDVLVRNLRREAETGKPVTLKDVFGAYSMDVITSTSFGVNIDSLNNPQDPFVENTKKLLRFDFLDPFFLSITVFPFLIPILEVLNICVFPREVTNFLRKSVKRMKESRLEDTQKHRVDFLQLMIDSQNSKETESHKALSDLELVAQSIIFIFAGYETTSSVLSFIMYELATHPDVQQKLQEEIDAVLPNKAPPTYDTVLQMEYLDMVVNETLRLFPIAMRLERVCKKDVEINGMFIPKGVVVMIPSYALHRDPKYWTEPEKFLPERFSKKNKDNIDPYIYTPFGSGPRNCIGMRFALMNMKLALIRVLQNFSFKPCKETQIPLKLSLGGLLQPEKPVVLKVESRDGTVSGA

`Cc1ccc(Cl)cc1N1CCN(C(CC(C)C)c2nnnn2CC2CCCO2)CC1` (stereo unspecified): the AC50 in [1] is 0.631 µM (active).

As to `C[C@@H]1CN([C@H](C)CO)C(=O)c2cc(NC(=O)Nc3ccc(C(F)(F)F)cc3)ccc2O[C@H]1CN(C)S(=O)(=O)c1ccc(Cl)cc1`, the AC50 in test [1] was 2.71 µM (active).

On to `Cc1cccc(NC(=O)c2cc(=O)c3ccccc3o2)n1`, for which the AC50 at Cytochrome P450 2C19 was 14.1 µM (inconclusive); at Cytochrome P450 2C9, 3.16 µM (inconclusive); on Cytochrome P450 3A4, 25.1 µM (inconclusive).

On to `Oc1nc(CN2CCN(c3ccccn3)CC2)nc2c(Br)cc(Br)cc12`, for which the AC50 in [1] was 2.76 µM (active).

Take `Cc1ccc(Nc2nc(N)c([N+](=O)[O-])c(NCc3ccco3)n2)cc1C`: the AC50 in [1] was 6.48 µM (active).

Turning to `CC(=O)c1ccc(OC(=O)c2cccs2)cc1`, the EC50 at Protein RecA was 12.2 µM (active). In addition, the AC50 in test [2] is 24.3 µM (active).

On to `CCCc1nnc(NC(=O)c2c(O)c3cccc4c3n(c2=O)CCC4)s1`, for which the EC50 in test [3] was > 120 µM (not active); in test [4] it was 2.53 µM (active); in test [5], > 120 µM (not active); with Streptococcus, 3.1 µM (active); in [6], 99.5 µM (active).

Turning to `Nc1nc(NCc2ccco2)nc(Nc2ccc(F)cc2)c1[N+](=O)[O-]`, the EC50 in test [3] is > 120 µM (not active); in test [5] it was > 120 µM (not active); in test [6], 35 µM (active).

For `Cc1n[nH]c2c1C(CC(C)C)C(C#N)=C(N)O2` (stereo unspecified), on Protein RecA, the EC50 is 3.84 µM (active). The AC50 in test [2] was 13.1 µM (active).

On to `Nc1nc(NCCOCCO)nc(NC2CCCCC2)c1[N+](=O)[O-]`, for which the EC50 in test [3] was 0.14 µM (active); in [5], 17.3 µM (active); in test [6], 16.7 µM (active).

For `COc1ccc(/C=C/c2cc(C(=O)O)c3ccccc3n2)cc1`, the EC50 in test [3] is 2.83 µM (active); in [5], 6.45 µM (active); in test [6], 3.67 µM (active).

Turning to `CC(C)[C@@H]1CC[C@@H](C)c2c1n[nH]c2-c1ccccc1`, the AC50 in test [1] was 4.99 µM (active).

As for `COC(=O)Nc1nc(-c2ccccc2)c(C(=O)c2ccc(Cl)cc2)s1`, the EC50 in [3] was 7.87 µM (active); in [5], 0.179 µM (active); in test [6], 7.45 µM (active).

Regarding `N#Cc1nc(Cc2cccc3ccccc23)oc1N1CCCCC1`, the EC50 in test [3] is > 120 µM (not active); in [5], > 120 µM (not active); in [6], 16.2 µM (active).

Consider `Cn1cnc([N+](=O)[O-])c1Sc1ccc(C(C)(C)C)cc1`, for which the EC50 at Protein RecA was 14.1 µM (active). The concentration at half-maximal activity (AC50) in test [2] is 13.6 µM (active).

For the compound `CCCS(=O)(=O)N1CCCC(C(=O)N2CCN(c3ccccc3)CC2)C1` (stereo unspecified), the AC50 was 6.31 µM (inconclusive) at Cytochrome P450 2C19, 14.1 µM (inconclusive) at Cytochrome P450 2C9, 14.1 µM (inconclusive) on Cytochrome P450 3A4 and 0.00501 µM (inconclusive) at Cytochrome P450 1A2.

Regarding `COc1ccc(-c2sc3ccc(N4CCOCC4)cc3c2C#CCCO)cc1`, in test [1], the AC50 is 3 µM (active).

`CCOC(=O)C(C#N)C(c1cccnc1)c1c(C)[nH][nH]c1=O` (stereo unspecified): the EC50 on Protein RecA is 1.81 µM (active). In addition, the AC50 in test [2] was 6.32 µM (active).

With `CCc1ccc(Nc2nc(N)nc(CSc3nc4ccccc4s3)n2)cc1`, the AC50 in test [1] was > 195 µM (inactive).

With `CC1CCc2cccc3c2N1c1cc(C#N)c(C#N)cc1O3` (stereo unspecified), the EC50 in test [3] is 88.7 µM (active); in [5], 33.4 µM (active); in test [6], 8.54 µM (active).

With `O=C(CCCN1C(=O)/C(=C\c2cccs2)SC1=S)Nc1ccc(O)cc1C(=O)O`, on Protein RecA, the EC50 was 12.7 µM (active). Moreover, the AC50 in test [2] is 17.7 µM (active).

Turning to `CCOC(=O)c1sc2nc(CC(=O)OC)nc(N3CCN(c4ccc(OC)cc4)CC3)c2c1C`, the EC50 in test [3] is > 120 µM (not active); in test [7] it was > 60 µM (not active); in test [5], 89.9 µM (active); in test [8], 1.91 µM (active); in [6] it was > 120 µM (not active).

Regarding `CCc1nnc(NC(=O)c2ccc(S(=O)(=O)N(C)Cc3ccccc3)cc2)o1`, the EC50 in [3], in test [5] and in [6] was > 120 µM (not active) throughout.

As to `CC(=O)c1ccc(Oc2ncnc(N)c2[N+](=O)[O-])cc1`, the EC50 was 13.6 µM (active) in test [3], 11.2 µM (active) in [5] and > 120 µM (not active) in [6].

For the compound `CCOc1c2ccc(C(=O)NCc3ccco3)cc2nn1CC`, the AC50 is 10 µM (inconclusive) on Cytochrome P450 2C9 and 31.6 µM (inconclusive) at Cytochrome P450 3A4.

For the compound `O=C1c2ccccc2C(=O)C12Cc1ccccc1N1CCN(c3ccccc3)CC12` (stereo unspecified), the EC50 in [3], in [5] and in test [6] was > 120 µM (not active) in each case.

In the case of `CCCc1n[nH]c2c1C(c1ccccc1OCC)C(C#N)=C(N)O2` (stereo unspecified), the EC50 at Protein RecA was 9.01 µM (active). In test [2], the AC50 is 237 µM (active).

Turning to `Cc1cc(N)n(-c2ccc(S(N)(=O)=O)cc2[N+](=O)[O-])n1`, the AC50 in test [1] is > 195 µM (inactive).
